Assay results reported in BindingDB's records for doi:10.1016/j.bmcl.2007.01.081 (Roche Research Center, 2007).

Tests used:
SJSA-1 = assay: Antiproliferative activity against human SJSA1 cells
RKO = assay: Antiproliferative activity against human RKO cells
SW480 = assay: Antiproliferative activity against human SW480 cells
HCT-116 = assay: Antiproliferative activity against human HCT116 cells
MDA-MB-435 = assay: Antiproliferative activity against human MDA435 cells

Compound	IC50 (SJSA-1) [µM]	IC50 (RKO) [µM]	IC50 (SW480) [µM]	IC50 (HCT-116) [µM]	IC50 (MDA-MB-435) [µM]
O=C1N=C(N[C@@H](CO)Cc2ccccc2)SC1=Cc1ccc2ncccc2c1 [(R,Z)-2-(1-hydroxy-3-phenylpropan-2-ylamino)-5-(quinolin-6-ylmethylene)thiazol-4(5H)-one]	3.24	1.39	3.07	1.58	2.03
O=C1N=C(N[C@@H]2C[C@H]2c2ccccc2)SC1=Cc1ccc2ncccc2c1 [(Z)-2-((1R,2S)-2-phenylcyclopropylamino)-5-(quinolin-6-ylmethylene)thiazol-4(5H)-one]	1.85				
O=C1N=C(NCc2cccs2)S/C1=C/c1ccc2ncccc2c1	4.55				
